Tests used:
Experiment in all cases: Kinase profiling
Assay type in all cases: biochemical
MRCKα(h) = target: T1, MRCKα(h) (Homo sapiens, UniProt Q5VT25)
T1 construct: purchased Eurofins Cerep SA (KinaseProfiler)
Procedure: (§1) 380 kinases inhibitory activities of SKLB-D18 were conducted by Eurofins Cerep SA. The result was illustrated by kinase tree (http://www.kinhub.org/kinmap/).

MST3(h) = target: T2, MST3(h) (Homo sapiens, UniProt Q9Y6E0)
T2 construct: purchased Eurofins Cerep SA (KinaseProfiler)
Procedure: as §1

PAK5(h) = target: T3, PAK5(h) (Homo sapiens, UniProt Q9P286)
T3 construct: purchased Eurofins Cerep SA (KinaseProfiler)
Procedure: as §1

PhKγ1(h) = target: T4, PhKγ1(h) (Homo sapiens, UniProt Q16816)
T4 construct: purchased Eurofins Cerep SA (KinaseProfiler)
Procedure: as §1

EphA8(h) = target: T5, EphA8(h) (Homo sapiens, UniProt P29322)
T5 construct: purchased Eurofins Cerep SA (KinaseProfiler)
Procedure: as §1

PKR(h) = target: T6, PKR(h) (Homo sapiens, UniProt P19525)
T6 construct: purchased Eurofins Cerep SA (KinaseProfiler)
Procedure: as §1

MAP4K4(h) = target: T7, MAP4K4(h) (Homo sapiens, UniProt O95819)
T7 construct: purchased Eurofins Cerep SA (KinaseProfiler)
Procedure: as §1

COT(h) = target: T8, COT(h) (Homo sapiens, UniProt P41279)
T8 construct: purchased Eurofins Cerep SA (KinaseProfiler)
Procedure: as §1

CaMKIβ(h) = target: T9, CaMKIβ(h) (Homo sapiens, UniProt Q6P2M8)
T9 construct: purchased Eurofins Cerep SA (KinaseProfiler)
Procedure: as §1

CLK3(h) = target: T10, CLK3(h) (Homo sapiens, UniProt P49761)
T10 construct: purchased Eurofins Cerep SA (KinaseProfiler)
Procedure: as §1

TSSK1(h) = target: T11, TSSK1(h) (Homo sapiens, UniProt Q9BXA7)
T11 construct: purchased Eurofins Cerep SA (KinaseProfiler)
Procedure: as §1

CLK2(h) = target: T12, CLK2(h) (Homo sapiens, UniProt P49760)
T12 construct: purchased Eurofins Cerep SA (KinaseProfiler)
Procedure: as §1

PI3KC2g(h) = target: T13, PI3KC2g(h) (Homo sapiens, UniProt O75747)
T13 construct: purchased Eurofins Cerep SA (KinaseProfiler)
Procedure: as §1

CaMKK1(h) = target: T14, CaMKK1(h) (Homo sapiens, UniProt Q8N5S9)
T14 construct: purchased Eurofins Cerep SA (KinaseProfiler)
Procedure: as §1

Wee1(h) = target: T15, Wee1(h) (Homo sapiens, UniProt P30291)
T15 construct: purchased Eurofins Cerep SA (KinaseProfiler)
Procedure: as §1

Ret(h) = target: T16, Ret(h) (Homo sapiens, UniProt P07949)
T16 construct: purchased Eurofins Cerep SA (KinaseProfiler)
Procedure: as §1

DCAMKL1(h) = target: T17, DCAMKL1(h) (Homo sapiens, UniProt O15075)
T17 construct: purchased Eurofins Cerep SA (KinaseProfiler)
Procedure: as §1

ATM(h) = target: T18, ATM(h) (Homo sapiens, UniProt Q13315)
T18 construct: purchased Eurofins Cerep SA (KinaseProfiler)
Procedure: as §1

Fer(h) = target: T19, Fer(h) (Homo sapiens, UniProt P16591)
T19 construct: purchased Eurofins Cerep SA (KinaseProfiler)
Procedure: as §1

Rsk1(h) = target: T20, Rsk1(h) (Homo sapiens, UniProt Q15418)
T20 construct: purchased Eurofins Cerep SA (KinaseProfiler)
Procedure: as §1

CDKL1(h) = target: T21, CDKL1(h) (Homo sapiens, UniProt Q00532)
T21 construct: purchased Eurofins Cerep SA (KinaseProfiler)
Procedure: as §1

PhKγ2(h) = target: T22, PhKγ2(h) (Homo sapiens, UniProt P15735)
T22 construct: purchased Eurofins Cerep SA (KinaseProfiler)
Procedure: as §1

PKCβII(h) = target: T23, PKCβII(h) (Homo sapiens, UniProt P05771)
T23 construct: purchased Eurofins Cerep SA (KinaseProfiler)
Procedure: as §1

Yes(h) = target: T24, Yes(h) (Homo sapiens, UniProt P07947)
T24 construct: purchased Eurofins Cerep SA (KinaseProfiler)
Procedure: as §1

MSK2(h) = target: T25, MSK2(h) (Homo sapiens, UniProt O75676)
T25 construct: purchased Eurofins Cerep SA (KinaseProfiler)
Procedure: as §1

PDK1(h) = target: T26, PDK1(h) (Homo sapiens, UniProt O15530)
T26 construct: purchased Eurofins Cerep SA (KinaseProfiler)
Procedure: as §1

NIM1(h) = target: T27, NIM1(h) (Homo sapiens, UniProt Q8IY84)
T27 construct: purchased Eurofins Cerep SA (KinaseProfiler)
Procedure: as §1

IGF-1R(h) = target: T28, IGF-1R(h) (Homo sapiens, UniProt P08069)
T28 construct: purchased Eurofins Cerep SA (KinaseProfiler)
Procedure: as §1

AMPKα2(h) = target: T29, AMPKα2(h) (Homo sapiens, UniProt P54646)
T29 construct: purchased Eurofins Cerep SA (KinaseProfiler)
Procedure: as §1

ALK2(h) = target: T30, ALK2(h) (Homo sapiens, UniProt Q04771)
T30 construct: purchased Eurofins Cerep SA (KinaseProfiler)
Procedure: as §1

TrkA(h) = target: T31, TrkA(h) (Homo sapiens, UniProt P04629)
T31 construct: purchased Eurofins Cerep SA (KinaseProfiler)
Procedure: as §1

CDKL4(h) = target: T32, CDKL4(h) (Homo sapiens, UniProt Q5MAI5)
T32 construct: purchased Eurofins Cerep SA (KinaseProfiler)
Procedure: as §1

MRCKβ(h) = target: T33, MRCKβ(h) (Homo sapiens, UniProt Q9Y5S2)
T33 construct: purchased Eurofins Cerep SA (KinaseProfiler)
Procedure: as §1

PEK(h) = target: T34, PEK(h) (Homo sapiens, UniProt Q9NZJ5)
T34 construct: purchased Eurofins Cerep SA (KinaseProfiler)
Procedure: as §1

ARK5(h) = target: T35, ARK5(h) (Homo sapiens, UniProt O60285)
T35 construct: purchased Eurofins Cerep SA (KinaseProfiler)
Procedure: as §1

ATR/ATRIP(h) = target: T36, ATR/ATRIP(h) (Homo sapiens, UniProt Q13535)
T36 construct: purchased Eurofins Cerep SA (KinaseProfiler)
Procedure: as §1

MINK(h) = target: T37, MINK(h) (Homo sapiens, UniProt Q8N4C8)
T37 construct: purchased Eurofins Cerep SA (KinaseProfiler)
Procedure: as §1

LRRK2(h) = target: T38, LRRK2(h) (Homo sapiens, UniProt Q5S007)
T38 construct: purchased Eurofins Cerep SA (KinaseProfiler)
Procedure: as §1

STK32A(h) = target: T39, STK32A(h) (Homo sapiens, UniProt Q8WU08)
T39 construct: purchased Eurofins Cerep SA (KinaseProfiler)
Procedure: as §1

IR(h), activated = target: T40, IR(h), activated (Homo sapiens, UniProt P06213)
T40 construct: purchased Eurofins Cerep SA (KinaseProfiler)
Procedure: as §1

EphA5(h) = target: T41, EphA5(h) (Homo sapiens, UniProt P54756)
T41 construct: purchased Eurofins Cerep SA (KinaseProfiler)
Procedure: as §1

T17 sequence (O15075 whole entry): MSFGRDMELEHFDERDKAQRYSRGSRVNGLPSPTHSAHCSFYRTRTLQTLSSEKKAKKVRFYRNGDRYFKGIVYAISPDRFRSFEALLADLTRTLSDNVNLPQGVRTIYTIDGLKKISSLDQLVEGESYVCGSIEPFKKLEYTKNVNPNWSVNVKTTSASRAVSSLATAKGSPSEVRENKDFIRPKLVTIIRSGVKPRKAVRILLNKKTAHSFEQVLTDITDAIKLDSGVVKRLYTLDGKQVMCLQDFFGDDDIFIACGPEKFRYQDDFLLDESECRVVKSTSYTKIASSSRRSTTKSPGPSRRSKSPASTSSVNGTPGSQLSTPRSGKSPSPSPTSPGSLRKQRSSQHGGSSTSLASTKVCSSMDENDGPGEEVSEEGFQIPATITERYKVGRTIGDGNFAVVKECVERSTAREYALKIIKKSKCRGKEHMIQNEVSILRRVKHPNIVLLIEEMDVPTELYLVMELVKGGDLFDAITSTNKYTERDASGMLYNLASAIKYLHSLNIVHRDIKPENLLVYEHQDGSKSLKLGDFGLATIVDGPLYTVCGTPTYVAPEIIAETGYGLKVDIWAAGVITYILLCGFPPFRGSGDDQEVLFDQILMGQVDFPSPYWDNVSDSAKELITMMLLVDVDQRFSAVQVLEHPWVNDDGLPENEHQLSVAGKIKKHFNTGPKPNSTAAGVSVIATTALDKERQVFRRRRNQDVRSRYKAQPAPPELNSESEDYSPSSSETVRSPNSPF
T13 sequence (O75747 whole entry): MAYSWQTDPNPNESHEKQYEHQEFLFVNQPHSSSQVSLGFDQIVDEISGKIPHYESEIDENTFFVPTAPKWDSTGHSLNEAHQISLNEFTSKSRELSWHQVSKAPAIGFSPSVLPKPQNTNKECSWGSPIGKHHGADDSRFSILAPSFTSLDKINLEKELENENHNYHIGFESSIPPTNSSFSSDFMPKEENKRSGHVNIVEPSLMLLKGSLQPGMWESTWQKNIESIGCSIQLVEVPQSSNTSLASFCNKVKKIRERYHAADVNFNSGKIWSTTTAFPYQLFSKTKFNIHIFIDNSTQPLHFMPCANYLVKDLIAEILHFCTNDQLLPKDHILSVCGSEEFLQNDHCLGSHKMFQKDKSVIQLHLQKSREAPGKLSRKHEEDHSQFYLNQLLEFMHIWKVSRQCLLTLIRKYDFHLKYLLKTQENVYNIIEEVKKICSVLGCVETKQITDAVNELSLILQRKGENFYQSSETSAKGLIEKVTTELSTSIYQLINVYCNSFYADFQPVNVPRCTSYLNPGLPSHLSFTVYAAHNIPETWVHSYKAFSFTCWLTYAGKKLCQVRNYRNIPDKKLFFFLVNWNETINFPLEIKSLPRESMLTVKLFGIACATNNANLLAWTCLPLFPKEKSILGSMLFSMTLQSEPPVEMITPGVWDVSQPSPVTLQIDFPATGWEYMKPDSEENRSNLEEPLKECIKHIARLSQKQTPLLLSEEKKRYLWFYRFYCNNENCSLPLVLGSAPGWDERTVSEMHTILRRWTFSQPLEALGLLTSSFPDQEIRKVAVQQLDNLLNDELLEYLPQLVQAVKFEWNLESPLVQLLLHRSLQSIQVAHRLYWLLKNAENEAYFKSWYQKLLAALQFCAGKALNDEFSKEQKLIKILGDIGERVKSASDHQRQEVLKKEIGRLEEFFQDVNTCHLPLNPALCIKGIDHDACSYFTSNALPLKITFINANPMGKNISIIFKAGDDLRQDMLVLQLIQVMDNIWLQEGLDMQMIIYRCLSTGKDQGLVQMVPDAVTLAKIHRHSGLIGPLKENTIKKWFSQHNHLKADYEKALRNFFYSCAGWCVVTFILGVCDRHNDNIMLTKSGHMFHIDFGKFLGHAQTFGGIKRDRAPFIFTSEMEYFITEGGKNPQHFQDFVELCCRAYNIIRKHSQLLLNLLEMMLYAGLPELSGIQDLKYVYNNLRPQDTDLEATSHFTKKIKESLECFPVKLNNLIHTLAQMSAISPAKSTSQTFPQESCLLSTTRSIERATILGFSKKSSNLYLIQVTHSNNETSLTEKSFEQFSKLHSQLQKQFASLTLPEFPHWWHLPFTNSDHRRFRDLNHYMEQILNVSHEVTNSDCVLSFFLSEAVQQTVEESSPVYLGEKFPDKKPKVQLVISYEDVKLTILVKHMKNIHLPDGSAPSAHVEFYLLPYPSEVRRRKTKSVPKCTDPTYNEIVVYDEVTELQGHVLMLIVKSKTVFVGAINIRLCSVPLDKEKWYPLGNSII
T33 sequence (Q9Y5S2 whole entry): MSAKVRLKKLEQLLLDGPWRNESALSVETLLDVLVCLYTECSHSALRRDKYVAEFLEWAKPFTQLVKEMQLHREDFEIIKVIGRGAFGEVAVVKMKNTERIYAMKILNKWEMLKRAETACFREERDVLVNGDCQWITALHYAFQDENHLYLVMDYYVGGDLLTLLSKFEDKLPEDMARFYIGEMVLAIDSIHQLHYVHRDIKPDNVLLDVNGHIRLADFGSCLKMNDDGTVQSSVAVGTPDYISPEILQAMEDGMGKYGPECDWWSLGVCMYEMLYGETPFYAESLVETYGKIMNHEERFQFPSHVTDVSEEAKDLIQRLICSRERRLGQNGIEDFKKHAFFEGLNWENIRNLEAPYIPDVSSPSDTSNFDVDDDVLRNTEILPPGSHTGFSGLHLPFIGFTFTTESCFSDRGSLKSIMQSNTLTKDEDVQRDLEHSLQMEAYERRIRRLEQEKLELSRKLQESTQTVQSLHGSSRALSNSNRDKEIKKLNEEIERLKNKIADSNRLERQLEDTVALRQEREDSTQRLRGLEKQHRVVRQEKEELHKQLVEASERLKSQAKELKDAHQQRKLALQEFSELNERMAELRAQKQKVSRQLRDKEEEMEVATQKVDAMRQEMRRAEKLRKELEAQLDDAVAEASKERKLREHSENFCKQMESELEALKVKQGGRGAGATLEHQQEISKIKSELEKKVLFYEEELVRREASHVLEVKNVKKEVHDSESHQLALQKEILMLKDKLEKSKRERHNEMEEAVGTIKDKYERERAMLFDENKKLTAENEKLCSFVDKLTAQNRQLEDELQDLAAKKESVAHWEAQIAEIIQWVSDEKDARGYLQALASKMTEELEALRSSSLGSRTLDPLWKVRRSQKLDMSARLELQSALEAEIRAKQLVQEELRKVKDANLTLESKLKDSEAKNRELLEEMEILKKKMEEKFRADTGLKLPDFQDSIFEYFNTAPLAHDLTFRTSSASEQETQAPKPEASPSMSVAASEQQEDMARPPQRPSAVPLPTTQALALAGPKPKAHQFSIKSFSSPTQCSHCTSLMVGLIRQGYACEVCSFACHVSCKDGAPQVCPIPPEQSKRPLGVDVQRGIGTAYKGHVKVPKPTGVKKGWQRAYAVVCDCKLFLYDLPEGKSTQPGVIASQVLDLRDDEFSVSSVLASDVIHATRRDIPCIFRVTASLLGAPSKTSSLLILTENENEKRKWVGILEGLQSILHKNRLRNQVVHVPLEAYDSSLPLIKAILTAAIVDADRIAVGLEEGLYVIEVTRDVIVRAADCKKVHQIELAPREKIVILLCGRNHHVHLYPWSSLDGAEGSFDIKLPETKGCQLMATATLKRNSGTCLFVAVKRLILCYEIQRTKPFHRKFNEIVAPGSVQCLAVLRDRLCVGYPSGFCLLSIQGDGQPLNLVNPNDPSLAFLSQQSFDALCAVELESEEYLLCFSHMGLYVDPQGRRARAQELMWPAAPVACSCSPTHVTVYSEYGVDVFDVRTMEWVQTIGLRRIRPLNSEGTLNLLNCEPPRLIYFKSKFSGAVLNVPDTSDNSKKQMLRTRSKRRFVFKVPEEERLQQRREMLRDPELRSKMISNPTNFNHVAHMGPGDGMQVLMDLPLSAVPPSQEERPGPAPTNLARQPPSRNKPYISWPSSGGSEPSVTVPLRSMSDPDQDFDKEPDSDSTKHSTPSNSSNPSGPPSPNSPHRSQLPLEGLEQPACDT
T27 sequence (Q8IY84 whole entry): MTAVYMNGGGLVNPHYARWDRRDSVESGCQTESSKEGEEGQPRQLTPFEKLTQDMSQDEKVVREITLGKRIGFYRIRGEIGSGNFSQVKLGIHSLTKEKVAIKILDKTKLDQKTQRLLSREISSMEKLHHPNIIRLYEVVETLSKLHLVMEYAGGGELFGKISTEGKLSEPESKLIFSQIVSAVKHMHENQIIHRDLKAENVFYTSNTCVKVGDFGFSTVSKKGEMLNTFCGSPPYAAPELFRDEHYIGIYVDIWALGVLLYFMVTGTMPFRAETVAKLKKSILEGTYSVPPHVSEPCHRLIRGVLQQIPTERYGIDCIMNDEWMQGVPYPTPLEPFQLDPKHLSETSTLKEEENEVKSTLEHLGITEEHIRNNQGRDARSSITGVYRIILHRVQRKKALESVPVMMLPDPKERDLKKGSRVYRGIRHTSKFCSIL
T24 sequence (P07947 whole entry): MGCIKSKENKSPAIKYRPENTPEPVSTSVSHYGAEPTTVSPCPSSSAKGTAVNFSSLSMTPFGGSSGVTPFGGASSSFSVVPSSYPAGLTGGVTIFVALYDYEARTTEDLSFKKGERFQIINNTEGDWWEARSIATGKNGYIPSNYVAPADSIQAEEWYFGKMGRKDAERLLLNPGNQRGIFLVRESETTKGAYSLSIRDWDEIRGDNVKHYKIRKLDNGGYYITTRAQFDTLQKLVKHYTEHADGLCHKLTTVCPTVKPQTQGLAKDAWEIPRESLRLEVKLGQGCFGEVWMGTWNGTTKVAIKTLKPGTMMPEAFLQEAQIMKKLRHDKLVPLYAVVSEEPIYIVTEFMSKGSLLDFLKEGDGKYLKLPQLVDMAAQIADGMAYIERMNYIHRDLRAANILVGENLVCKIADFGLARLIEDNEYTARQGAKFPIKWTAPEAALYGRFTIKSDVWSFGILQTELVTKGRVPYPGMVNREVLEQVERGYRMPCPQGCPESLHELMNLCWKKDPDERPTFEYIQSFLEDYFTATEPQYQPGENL

Compound `CN(C)Cc1cccc(Nc2ncc(Cl)c(-c3csc(C(=O)NN4CCOCC4)c3)n2)c1` [SKLB-D18, 4-(5-chloro-2-((3-((dimethylamino)methyl)phenyl)amino)pyrimidin-4-yl)-N-morpholinothiophene-2-carboxamide] has an inhibition at 1 µM (MRCKα(h)) of 2%, an inhibition at 1 µM (MST3(h)) of 19% and an inhibition at 1 µM (PAK5(h)) of 26%. The inhibition at 1 µM (PhKγ1(h)) was 63%, the inhibition at 1 µM (EphA8(h)) was 14% and the inhibition at 1 µM (PKR(h)) was 26%. The inhibition at 1 µM (MAP4K4(h)) was 14%, the inhibition at 1 µM (COT(h)) was -5% and the inhibition at 1 µM (CaMKIβ(h)) was 1%. For the same compound, the inhibition at 1 µM (CLK3(h)) was 11%, the inhibition at 1 µM (TSSK1(h)) was 60% and the inhibition at 1 µM (CLK2(h)) was 58%. The inhibition at 1 µM (PI3KC2g(h)) was -7%, the inhibition at 1 µM (CaMKK1(h)) was 12% and the inhibition at 1 µM (Wee1(h)) was 48%. The inhibition at 1 µM (Ret(h)) was 81%, the inhibition at 1 µM (DCAMKL1(h)) was 17% and the inhibition at 1 µM (ATM(h)) was 7%. It also gave an inhibition at 1 µM (Fer(h)) of 16%, an inhibition at 1 µM (Rsk1(h)) of 51% and an inhibition at 1 µM (CDKL1(h)) of 48%. It also gave an inhibition at 1 µM (PhKγ2(h)) of 19%, an inhibition at 1 µM (PKCβII(h)) of 28% and an inhibition at 1 µM (Yes(h)) of 65%. It also gave an inhibition at 1 µM (MSK2(h)) of 16%, an inhibition at 1 µM (PDK1(h)) of 42% and an inhibition at 1 µM (NIM1(h)) of 50%. For the same compound, the inhibition at 1 µM (IGF-1R(h)) was 7%, the inhibition at 1 µM (AMPKα2(h)) was 60% and the inhibition at 1 µM (ALK2(h)) was 16%. For the same compound, the inhibition at 1 µM (TrkA(h)) was 48%, the inhibition at 1 µM (CDKL4(h)) was 66% and the inhibition at 1 µM (MRCKβ(h)) was 15%. It also gave an inhibition at 1 µM (PEK(h)) of 3%, an inhibition at 1 µM (ARK5(h)) of 72% and an inhibition at 1 µM (ATR/ATRIP(h)) of 13%. It also gave an inhibition at 1 µM (MINK(h)) of 22%, an inhibition at 1 µM (LRRK2(h)) of 65% and an inhibition at 1 µM (STK32A(h)) of -3%. It also gave an inhibition at 1 µM (IR(h), activated) of 13% and an inhibition at 1 µM (EphA5(h)) of 3%.
